Assay results taken from US20210260055A1, “TOPICAL FORMULATIONS OF DGAT1 INHIBITORS AND THEIR METHODS OF USE” (Dermavant Sciences GmbH, priority 2018, published 2021).
Like-named read-outs stand apart in the source and are kept apart here.

Tests used:
[1] = tested on: Human immortalized sebocytes; assay: 14C-Acetate Sebocyte Lipid Accumulation Assay; assay type: cell-based; details: day 2, 16 hour treatment with 1 μM T0901317, then 1 μM insulin for 4 hours
Protocol: This assay examines the ability of compounds to modulate the incorporation of label into de novo lipid synthesis. Cells were seeded in collagen 1-coated Scintiplates. Compounds were added in the presence of Liver X Receptor (LXR) agonist (T0901317) overnight. The medium was replaced with treatments and stimulated with 1 μM insulin for 4 hours in Labeling Medium containing 14C-acetate. Label incorporation was determined by washing the cells to removed excess label and allowing the cell layer to air dry before assessing labeling through Scintiplate counting normalized to Cell Titer Blue viability reagent.
Protocol—Day 1: Human immortalized sebocytes were seeded at 10,000 cells/well in a 96-well white, clear bottom collagen 1-coated Scintiplate in Sebocyte Growth Medium and allowed to attach overnight at 37° C. Day 2: Medium was refreshed by removing seeding medium and adding fresh Sebocyte Growth Medium. […] 3) Plates were read at Ex. 560 Em.590 with a cutoff of 570 nm for CTB signal. […] 5) 14C-acetate labeling was determined by scintillation counting in a MicroBeta TriLux Scintillation Counter.
Data analysis—Cell viability is presented as cell titer blue fluorescence reading (RFU) for each treatment. […] The percent of LXR agonist+Insulin-stimulated lipogenesis was calculated by taking the ratio of each CPM measure over the corresponding cell titer blue measure. […]

[2] = Toxicokinetic assessment of systemic exposure in minipigs following dermal administration; assay type: in vivo; details: Göttingen, minipig, plasma, topical or ocular; for AUC(0-t): read-out: AUC0-24; for Tmax: Median (Min-Max)
Protocol: Male and female göttingen minipigs were dosed daily for a period of 28 days in a GLP toxicity study with DMVT-503 gel at 0.1%, 0.3%, and 0.6%. DMVT-503 concentrations were quantitated using a validated LC-MS/MS method and toxicokinetic parameters were calculated for all dosing groups, sexes, and sampling occasions. The systemic exposures observed in this study are supportive of the effective delivery of DMVT-503 into and through minipig skin by the gel formulations tested. Table 10 presents the summary as mean±SD on Days 1 and 28 following daily dermal application of DMVT-503 gel formulations at 0.1%, 0.3%, and 0.6% (2, 6, and 12 mg/kg/day, respectively).

[3] = female, 2 mg/kg/day, Day 1, Female, 2 mg/kg/day, 0.1% gel
[4] = female, 2 mg/kg/day, Day 28, Female, 2 mg/kg/day, 0.1% gel
[5] = female, 6 mg/kg/day, Day 1, Female, 6 mg/kg/day, 0.3% gel
[6] = female, 6 mg/kg/day, Day 28, Female, 6 mg/kg/day, 0.3% gel
[7] = female, 12 mg/kg/day, Day 1, Female, 12 mg/kg/day, 0.6% gel
[8] = female, 12 mg/kg/day, Day 28, Female, 12 mg/kg/day, 0.6% gel
[9] = male, 2 mg/kg/day, Day 1, Male, 2 mg/kg/day, 0.1% gel
[10] = male, 2 mg/kg/day, Day 28, Male, 2 mg/kg/day, 0.1% gel
[11] = male, 6 mg/kg/day, Day 1, Male, 6 mg/kg/day, 0.3% gel
[12] = male, 6 mg/kg/day, Day 28, Male, 6 mg/kg/day, 0.3% gel
[13] = male, 12 mg/kg/day, Day 1, Male, 12 mg/kg/day, 0.6% gel
[14] = male, 12 mg/kg/day, Day 28, Male, 12 mg/kg/day, 0.6% gel

`Cc1nc(C)c(-c2ccc([C@H]3CC[C@H](CC(=O)O)CC3)cc2)nc1C(N)=O` [DMVT-503, 2-((1R,4R)-4-(4-(6-carbamoyl-3,5-dimethylpyrazin-2-yl)phenyl)cyclohexyl)acetic acid] gave an IC50 ([1]; Homo sapiens) of 49.6 nM, a Cmax [2, 3] of 37.3 ng/mL and an AUC(0-t) [2, 3] of 323 ng·h/mL. For the same compound, the Cmax [2, 4] was 193 ng/mL, the AUC(0-t) [2, 4] was 3940 ng·h/mL and the Tmax [2, 3] was 24 h. For the same compound, the Tmax [2, 4] was 1 h, the Cmax [2, 5] was 210 ng/mL and the AUC(0-t) [2, 5] was 1750 ng·h/mL. For the same compound, the Cmax [2, 6] was 487 ng/mL, the AUC(0-t) [2, 6] was 8660 ng·h/mL and the Tmax [2, 5] was 24 h. It also gave a Tmax [2, 6] of 0 h, a Cmax [2, 7] of 171 ng/mL and an AUC(0-t) [2, 7] of 1490 ng·h/mL. The Cmax [2, 8] was 1370 ng/mL, the AUC(0-t) [2, 8] was 25400 ng·h/mL and the Tmax [2, 7] was 24 h. The Tmax [2, 8] was 0 h, the Cmax [2, 9] was 35.1 ng/mL and the AUC(0-t) [2, 9] was 307 ng·h/mL. For the same compound, the Cmax [2, 10] was 19.6 ng/mL, the AUC(0-t) [2, 10] was 3970 ng·h/mL and the Tmax [2, 9] was 24 h. It also gave a Tmax [2, 10] of 0 h, a Cmax [2, 11] of 53 ng/mL and an AUC(0-t) [2, 11] of 478 ng·h/mL. The Cmax [2, 12] was 940 ng/mL, the AUC(0-t) [2, 12] was 17500 ng·h/mL and the Tmax [2, 11] was 24 h. For the same compound, the Tmax [2, 12] was 2 h, the Cmax [2, 13] was 103 ng/mL and the AUC(0-t) [2, 13] was 10500 ng·h/mL. It also gave a Cmax [2, 14] of 1160 ng/mL, an AUC(0-t) [2, 14] of 22300 ng·h/mL and a Tmax [2, 13] of 24 h. For the same compound, the Tmax [2, 14] was 1 h.

In the case of `CC1=C(/C=C/C(C)=C/C=C/C(C)=C\C(=O)O)C(C)(C)CCC1` [Mix 13-cis-RA, 13-cis-retinoic Acid, reference compound], the IC50 [1] is reported as 333 nM.
